Source: US4857549A, “Antitumor compounds” (priority 1988, dated 1989)
Values joined by “and” are separate entries in the source; they are usually repeats but may differ in a detail not shown here. Equal entries are not always repeated. Where two headings read alike, the source gives them in different places.

Test system: P388 leukemia
Conditions: for ILS (maximum increase in lifespan): ip P388 leukemia mice, ip days 1-5, slash-separated figures are separate experiments, compound 2: 35 experiments
[1] = Table B, B6D2F1 female mice, ip qD × 5

[Cl][Au][PH](C=C[PH]([Au][Cl])(c1ccccc1)c1ccccc1)(c1ccccc1)c1ccccc1 [Compound 8, μ-[Trans-1,2-Bis(Diphenylphosphino)Ethylene]Bis[Chlorogold(I)]] was tested, and the “MTD (maximally tolerated dose)” value [1] was 24 mg/kg and the “ILS (maximum increase in lifespan)” value (Table B) was 33% and 36%.

C[C@H](C[PH]([Au][Cl])(c1ccccc1)c1ccccc1)[PH]([Au][Cl])(c1ccccc1)c1ccccc1 [Compound 10, μ-[(R)-(+)-1,2Bis(Diphenylphosphino)Propane]Bis[Chlorogold(I)]] was tested, and the “MTD (maximally tolerated dose)” value [1] was 6 mg/kg and the “ILS (maximum increase in lifespan)” value (Table B) was 50% and 25%.

For CC(C(C)[PH]([Au][Cl])(c1ccccc1)c1ccccc1)[PH]([Au][Cl])(c1ccccc1)c1ccccc1 [Compound 11, μ-[(-) (2S,3S)-2,3-Bis(Diphenylphosphino)Butane]Bis[Chlorogold(I)]], the “MTD (maximally tolerated dose)” value (mouse, in vivo, ip) was 6 mg/kg.

For O=[N+]([O-])[O][Ag][PH](CC[PH]([Ag][O][N+](=O)[O-])(c1ccccc1)c1ccccc1)(c1ccccc1)c1ccccc1 [Compound 13, μ-[1,2-Bis(Diphenylphosphino)Ethane]Bis[Nitratosilver(I)]], the “MTD (maximally tolerated dose)” value [1] was 6 mg/kg and the “ILS (maximum increase in lifespan)” value (Table B) was 45% and 30%.

With [Cl][Cu][PH](CC[PH]([Cu][Cl])(c1ccccc1)c1ccccc1)(c1ccccc1)c1ccccc1 [Compound 14, μ-[1,2-Bis(Diphenylphosphino)Ethane]Bis[Chlorocopper(I)]] the “MTD (maximally tolerated dose)” value [1] was 4 mg/kg and the “ILS (maximum increase in lifespan)” value (Table B) was 65% and 79%.

For CCOC(=S)[S][Au][PH](CC(O)[PH]([Au][S]C(=S)OCC)(c1ccccc1)c1ccccc1)(c1ccccc1)c1ccccc1 (centres unmarked) [Compound 19, μ-[1,2-Bis(Diphenylphosphino)Ethanol]Bis[O-Ethyldithiocarbonatogold(I)]], the “MTD (maximally tolerated dose)” value [1] was 6 mg/kg.

With CCOC(=O)C(N)C[S][Au][PH](CC[PH]([Au][S]CC(N)C(=O)OCC)(c1ccccc1)c1ccccc1)(c1ccccc1)c1ccccc1 (centres unmarked) [Compound 20] the “MTD (maximally tolerated dose)” value [1] was 6 mg/kg and the “ILS (maximum increase in lifespan)” value (Table B) was 50% and 56%.

With CC[PH](CC)(CC[PH]([Au][Cl])(c1ccccc1)c1ccccc1)[Au][Cl] [Compound 21, μ-[1-Diethylphosphino-2-Diphenylphosphino-Ethane]bis-[Chlorogold(I)]] the “MTD (maximally tolerated dose)” value [1] was 16 mg/kg and the “ILS (maximum increase in lifespan)” value (Table B) was 30%.

For COc1ccc([PH](CC[PH]([Au][Cl])(c2ccc(OC)cc2)c2ccc(OC)cc2)([Au][Cl])c2ccc(OC)cc2)cc1 [Compound 24, μ-[1,2-Bis[Bis(4-methoxyphenyl)phosphino]ethanel]bis[chlorogold(I)]], the “MTD (maximally tolerated dose)” value [1] was 8 mg/kg.

Fc1ccc([PH](CC[PH]([Au][Cl])(c2ccc(F)cc2)c2ccc(F)cc2)([Au][Cl])c2ccc(F)cc2)cc1 [Compound 25, μ-[1,2-Bis[Bis(4-Fluorophenyl)Phosphino]Ethane]Bis-[Chlorogold (I)]] was tested, and the “MTD (maximally tolerated dose)” value [1] was 8 mg/kg and the “ILS (maximum increase in lifespan)” value (Table B) was 80% and 75%.

With Fc1cccc([PH](CC[PH]([Au][Cl])(c2cccc(F)c2)c2cccc(F)c2)([Au][Cl])c2cccc(F)c2)c1 [Compound 26, μ-[1,2-Bis[Bis(3-Fluorophenyl)Phosphino]Ethane]Bis [Chlorogold (I)]] the “MTD (maximally tolerated dose)” value [1] was 8 mg/kg and the “ILS (maximum increase in lifespan)” value (Table B) was 60% and 55%.

With Fc1c(F)c(F)c([PH](CC[PH]([Au][Cl])(c2c(F)c(F)c(F)c(F)c2F)c2c(F)c(F)c(F)c(F)c2F)([Au][Cl])c2c(F)c(F)c(F)c(F)c2F)c(F)c1F [Compound 27, μ-[1,2-Bis[bis(2,3,4,5,6-pentafluorophenyl)phosphine]ethane]-bis[chlorogold(I)]] the “MTD (maximally tolerated dose)” value [1] was 16 mg/kg and the “ILS (maximum increase in lifespan)” value (Table B) was 30% and 25%.

For FC(F)(F)c1ccc([PH](CC[PH]([Au][Cl])(c2ccc(C(F)(F)F)cc2)c2ccc(C(F)(F)F)cc2)([Au][Cl])c2ccc(C(F)(F)F)cc2)cc1 [Compound 29], the “MTD (maximally tolerated dose)” value [1] was 8 mg/kg and the “ILS (maximum increase in lifespan)” value (Table B) was 37% and 44%.
